“Also recorded” adds a separate entry of the source.
Test system: patients with advanced solid tumors harboring FGFR1–3 gene alterations
Assay: Phase I dose-escalation: safety/tolerability
Format: in vivo, human
Settings: for Any TEAE / Any TEAE leading to discontinuation / Any TEAE leading to dose reduction / Any TEAE leading to treatment interruption / Serious TEAE / TEAE: ALT increased / TEAE: AST increased / TEAE: Abdominal pain / TEAE: Alopecia / TEAE: Anemia / TEAE: Back pain / TEAE: Blurred vision / TEAE: Constipation / TEAE: Creatinine increased (in blood) / TEAE: Decreased appetite / TEAE: Diarrhea / TEAE: Dry eye / TEAE: Dry mouth / TEAE: Dry skin / TEAE: Dysgeusia / TEAE: Dyspnea / TEAE: Edema peripheral / TEAE: Fatigue / TEAE: Hyperphosphatemia / TEAE: Hypertension / TEAE: Hypokalemia / TEAE: Hypomagnesemia / TEAE: Mucosal inflammation / TEAE: Myalgia / TEAE: Nail changes / TEAE: Nausea / TEAE: Stomatitis / TEAE: Vomiting: all grades

Debio 1347
DLT observed (60 mg): grade-2 dry mouth and eyes
Any TEAE (60 mg (n=10)): 10 (100) Number (%) of patients
Any TEAE leading to discontinuation (60 mg (n=10)): 1 (10) Number (%) of patients
Any TEAE leading to dose reduction (60 mg (n=10)): 2 (20) Number (%) of patients
Any TEAE leading to treatment interruption (60 mg (n=10)): 6 (60) Number (%) of patients
Serious TEAE (60 mg (n=10)): 2 (20) Number (%) of patients
TEAE: ALT increased (60 mg (n=10)): 1 (10) Number (%) of patients
TEAE: AST increased (60 mg (n=10)): 2 (20) Number (%) of patients
TEAE: Abdominal pain (60 mg (n=10)): 3 (30) Number (%) of patients
TEAE: Alopecia (60 mg (n=10)): 1 (10) Number (%) of patients
TEAE: Anemia (60 mg (n=10)): 4 (40) Number (%) of patients
TEAE: Back pain (60 mg (n=10)): 0 Number (%) of patients
TEAE: Blurred vision (60 mg (n=10)): 1 (10) Number (%) of patients
TEAE: Constipation (60 mg (n=10)): 2 (20) Number (%) of patients
TEAE: Creatinine increased (in blood) (60 mg (n=10)): 2 (20) Number (%) of patients
TEAE: Decreased appetite (60 mg (n=10)): 3 (30) Number (%) of patients
TEAE: Diarrhea (60 mg (n=10)): 7 (70) Number (%) of patients
TEAE: Dry eye (60 mg (n=10)): 2 (20) Number (%) of patients
TEAE: Dry mouth (60 mg (n=10)): 4 (40) Number (%) of patients
TEAE: Dry skin (60 mg (n=10)): 0 Number (%) of patients
TEAE: Dysgeusia (60 mg (n=10)): 1 (10) Number (%) of patients
TEAE: Dyspnea (60 mg (n=10)): 3 (30) Number (%) of patients
TEAE: Edema peripheral (60 mg (n=10)): 1 (10) Number (%) of patients
TEAE: Fatigue (60 mg (n=10)): 5 (50) Number (%) of patients
TEAE: Hyperphosphatemia (60 mg (n=10)): 9 (90) Number (%) of patients
TEAE: Hypertension (60 mg (n=10)): 1 (10) Number (%) of patients
TEAE: Hypokalemia (60 mg (n=10)): 0 Number (%) of patients
TEAE: Hypomagnesemia (60 mg (n=10)): 2 (20) Number (%) of patients
TEAE: Mucosal inflammation (60 mg (n=10)): 1 (10) Number (%) of patients
TEAE: Myalgia (60 mg (n=10)): 1 (10) Number (%) of patients
TEAE: Nail changes (60 mg (n=10)): 2 (20) Number (%) of patients
TEAE: Nausea (60 mg (n=10)): 3 (30) Number (%) of patients
TEAE: Stomatitis (60 mg (n=10)): 1 (10) Number (%) of patients
TEAE: Vomiting (60 mg (n=10)): 2 (20) Number (%) of patients
DLT observed (80 mg): hyperamylasemia; also recorded: grade-3 asymptomatic hypercalcemia
Any TEAE (80 mg (n=10)): 10(100%) Number (%) of patients
Any TEAE leading to discontinuation (80 mg (n=10)): 3 (30) Number (%) of patients
Any TEAE leading to dose reduction (80 mg (n=10)): 2 (20) Number (%) of patients
Any TEAE leading to treatment interruption (80 mg (n=10)): 5 (50) Number (%) of patients
Serious TEAE (80 mg (n=10)): 3 (30) Number (%) of patients
TEAE: ALT increased (80 mg (n=10)): 1 (10) Number (%) of patients
TEAE: AST increased (80 mg (n=10)): 1 (10) Number (%) of patients
TEAE: Abdominal pain (80 mg (n=10)): 3 (30) Number (%) of patients
TEAE: Alopecia (80 mg (n=10)): 1 (10) Number (%) of patients
TEAE: Anemia (80 mg (n=10)): 2 (20) Number (%) of patients
TEAE: Back pain (80 mg (n=10)): 0 Number (%) of patients
TEAE: Blurred vision (80 mg (n=10)): 2 (20) Number (%) of patients
TEAE: Constipation (80 mg (n=10)): 3 (30) Number (%) of patients
TEAE: Creatinine increased (in blood) (80 mg (n=10)): 2 (20) Number (%) of patients
TEAE: Decreased appetite (80 mg (n=10)): 5 (50) Number (%) of patients
TEAE: Diarrhea (80 mg (n=10)): 5 (50) Number (%) of patients
TEAE: Dry eye (80 mg (n=10)): 0 Number (%) of patients
TEAE: Dry mouth (80 mg (n=10)): 5 (50) Number (%) of patients
TEAE: Dry skin (80 mg (n=10)): 2 (20) Number (%) of patients
TEAE: Dysgeusia (80 mg (n=10)): 2 (20) Number (%) of patients
TEAE: Dyspnea (80 mg (n=10)): 1 (10) Number (%) of patients
TEAE: Edema peripheral (80 mg (n=10)): 2 (20) Number (%) of patients
TEAE: Fatigue (80 mg (n=10)): 5 (50) Number (%) of patients
TEAE: Hyperphosphatemia (80 mg (n=10)): 9 (90) Number (%) of patients
TEAE: Hypertension (80 mg (n=10)): 0 Number (%) of patients
TEAE: Hypokalemia (80 mg (n=10)): 2 (20) Number (%) of patients
TEAE: Hypomagnesemia (80 mg (n=10)): 1 (10) Number (%) of patients
TEAE: Mucosal inflammation (80 mg (n=10)): 3 (30) Number (%) of patients
TEAE: Myalgia (80 mg (n=10)): 3 (30) Number (%) of patients
TEAE: Nail changes (80 mg (n=10)): 3 (30) Number (%) of patients
TEAE: Nausea (80 mg (n=10)): 3 (30) Number (%) of patients
TEAE: Stomatitis (80 mg (n=10)): 3 (30) Number (%) of patients
TEAE: Vomiting (80 mg (n=10)): 1 (10) Number (%) of patients
DLT observed (110 mg): stomatitis; also recorded: grade-3 bilirubin increase and hyper-phosphatemia
Any TEAE (110 mg (n=9)): 9 (100%) Number (%) of patients
Any TEAE leading to discontinuation (110 mg (n=9)): 1 (11) Number (%) of patients
Any TEAE leading to dose reduction (110 mg (n=9)): 7 (78) Number (%) of patients
Any TEAE leading to treatment interruption (110 mg (n=9)): 8 (89) Number (%) of patients
Serious TEAE (110 mg (n=9)): 4 (44) Number (%) of patients
TEAE: ALT increased (110 mg (n=9)): 1 (11) Number (%) of patients
TEAE: AST increased (110 mg (n=9)): 1 (11) Number (%) of patients
TEAE: Abdominal pain (110 mg (n=9)): 2 (22) Number (%) of patients
TEAE: Alopecia (110 mg (n=9)): 4 (44) Number (%) of patients
TEAE: Anemia (110 mg (n=9)): 3 (33) Number (%) of patients
TEAE: Back pain (110 mg (n=9)): 1 (11) Number (%) of patients
TEAE: Blurred vision (110 mg (n=9)): 2 (22) Number (%) of patients
TEAE: Constipation (110 mg (n=9)): 3 (33) Number (%) of patients
TEAE: Creatinine increased (in blood) (110 mg (n=9)): 0 Number (%) of patients
TEAE: Decreased appetite (110 mg (n=9)): 3 (33) Number (%) of patients
TEAE: Diarrhea (110 mg (n=9)): 3 (33) Number (%) of patients
TEAE: Dry eye (110 mg (n=9)): 4 (44) Number (%) of patients
TEAE: Dry mouth (110 mg (n=9)): 4 (44) Number (%) of patients
TEAE: Dry skin (110 mg (n=9)): 5 (55) Number (%) of patients
TEAE: Dysgeusia (110 mg (n=9)): 4 (44) Number (%) of patients
TEAE: Dyspnea (110 mg (n=9)): 3 (33) Number (%) of patients
TEAE: Edema peripheral (110 mg (n=9)): 2 (22) Number (%) of patients
TEAE: Fatigue (110 mg (n=9)): 5 (55) Number (%) of patients
TEAE: Hyperphosphatemia (110 mg (n=9)): 9 (100) Number (%) of patients
TEAE: Hypertension (110 mg (n=9)): 0 Number (%) of patients
TEAE: Hypokalemia (110 mg (n=9)): 1 (11) Number (%) of patients
TEAE: Hypomagnesemia (110 mg (n=9)): 0 Number (%) of patients
TEAE: Mucosal inflammation (110 mg (n=9)): 2 (22) Number (%) of patients
TEAE: Myalgia (110 mg (n=9)): 3 (33) Number (%) of patients
TEAE: Nausea (110 mg (n=9)): 6 (67) Number (%) of patients
TEAE: Stomatitis (110 mg (n=9)): 7 (78) Number (%) of patients
TEAE: Vomiting (110 mg (n=9)): 3 (33) Number (%) of patients
Any TEAE (150 mg (n=3)): 3 (100%) Number (%) of patients
Any TEAE leading to discontinuation (150 mg (n=3)): 0 (0) Number (%) of patients
Any TEAE leading to treatment interruption (150 mg (n=3)): 3 (100) Number (%) of patients
Serious TEAE (150 mg (n=3)): 2 (67) Number (%) of patients
TEAE: ALT increased (150 mg (n=3)): 0 Number (%) of patients
TEAE: AST increased (150 mg (n=3)): 0 Number (%) of patients
TEAE: Abdominal pain (150 mg (n=3)): 1 (33) Number (%) of patients
TEAE: Alopecia (150 mg (n=3)): 2 (67) Number (%) of patients
TEAE: Anemia (150 mg (n=3)): 0 Number (%) of patients

Source: publication PMC9014845 (Clinical cancer research : an official journal of the …, 2019)
